Measurements reported in PubChem BioAssay AID1963437 (Molecular Pharmacology Branch, DTP, NCI, 2024).

System: OVCAR-8 complex spheroid, growth inhibition
Assay: Anticancer human tumor OVCAR-8 cell line growth inhibition [Asc];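 note: spheroids exposed to agents for 7 days before readout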;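 for viability, T/C: percent viability relative to DMSO vehicle wells taken as 100%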
Settings: for IC50: curve of first compound; for viability, T/C: stronger effect = lower value
Method in brief: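 Tumor cells were grown as complex spheroids with human endothelial cells (HUVEC) and human mesenchymal stem cells as stroma. Agents were tested alone and in combination, in half-log steps down from the clinical Cmax, or from 10 microM where Cmax was unknown.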

[1] = second compound 0.0316 µM, first compound 0.0316 µM
[2] = second compound 0.0316 µM, first compound 0.1 µM
[3] = second compound 0.0316 µM, first compound 0.316 µM
[4] = second compound 0.0316 µM, first compound 1 µM
[5] = second compound 0.0316 µM, first compound 3.16 µM
[6] = second compound 0.0316 µM, first compound 10 µM
[7] = second compound 0.1 µM, first compound 0.0316 µM
[8] = second compound 0.1 µM, first compound 0.1 µM
[9] = second compound 0.1 µM, first compound 0.316 µM
[10] = second compound 0.1 µM, first compound 1 µM
[11] = second compound 0.1 µM, first compound 3.16 µM
[12] = second compound 0.1 µM, first compound 10 µM
[13] = second compound 0.316 µM, first compound 0.0316 µM
[14] = second compound 0.316 µM, first compound 0.1 µM
[15] = second compound 0.316 µM, first compound 0.316 µM
[16] = second compound 0.316 µM, first compound 1 µM
[17] = second compound 0.316 µM, first compound 3.16 µM
[18] = second compound 0.316 µM, first compound 10 µM
[19] = second compound 1 µM, first compound 0.0316 µM
[20] = second compound 1 µM, first compound 0.1 µM
[21] = second compound 1 µM, first compound 0.316 µM
[22] = second compound 1 µM, first compound 1 µM
[23] = second compound 1 µM, first compound 3.16 µM
[24] = second compound 1 µM, first compound 10 µM
[25] = second compound 3.16 µM, first compound 0.0316 µM
[26] = second compound 3.16 µM, first compound 0.1 µM
[27] = second compound 3.16 µM, first compound 0.316 µM
[28] = second compound 3.16 µM, first compound 1 µM
[29] = second compound 3.16 µM, first compound 3.16 µM
[30] = second compound 3.16 µM, first compound 10 µM
[31] = second compound 10 µM, first compound 0.0316 µM
[32] = second compound 10 µM, first compound 0.1 µM
[33] = second compound 10 µM, first compound 0.316 µM
[34] = second compound 10 µM, first compound 1 µM
[35] = second compound 10 µM, first compound 3.16 µM
[36] = second compound 10 µM, first compound 10 µM

Work on `C=C(F)C(=O)N1CCN(c2nc(OCC3CCCN3C)nc3c2CCN(c2cccc4cccc(Cl)c24)C3)CC1CC#N` (stereo unspecified) + Cc1c(S(C)(=O)=O)c(-c2cc(F)cc(N3CCN(c4ccc(NS(=O)(=O)c5ccc(NC(CCN6CCC(C(=O)OCCCP(=O)(O)O)CC6)CSc6ccccc6)c(S(=O)(=O)C(F)(F)F)c5)cc4)CC3)c2)c(-c2ccc(Cl)cc2)n1C(C)C yielded an IC50 (second compound 0.0316 µM) of 2.33 µM, an IC50 (second compound 0.1 µM) of 2.24 µM and an IC50 (second compound 0.316 µM) of 2.32 µM. It also gave an IC50 (second compound 1 µM) of 2.51 µM, an IC50 (second compound 3.16 µM) of 2.25 µM and an IC50 (second compound 10 µM) of 2.15 µM. The viability, T/C [1] was 102%, the viability, T/C [2] was 92.4% and the viability, T/C [3] was 91.8%. It also gave a viability, T/C [4] of 102%, a viability, T/C [5] of 33% and a viability, T/C [6] of 2.02%. It also gave a viability, T/C [7] of 95.6%, a viability, T/C [8] of 94.3% and a viability, T/C [9] of 97.7%. For the same molecule, the viability, T/C [10] was 111%, the viability, T/C [11] was 28.5% and the viability, T/C [12] was 0.39%. For the same molecule, the viability, T/C [13] was 90.3%, the viability, T/C [14] was 99.5% and the viability, T/C [15] was 98.7%. It also gave a viability, T/C [16] of 113%, a viability, T/C [17] of 31.5% and a viability, T/C [18] of 0.28%. For the same molecule, the viability, T/C [19] was 92.1%, the viability, T/C [20] was 88.2% and the viability, T/C [21] was 96%. For the same molecule, the viability, T/C [22] was 114%, the viability, T/C [23] was 38.1% and the viability, T/C [24] was 1.17%. For the same molecule, the viability, T/C [25] was 102%, the viability, T/C [26] was 111% and the viability, T/C [27] was 93.2%. For the same molecule, the viability, T/C [28] was 128%, the viability, T/C [29] was 25.5% and the viability, T/C [30] was 0.35%. It also gave a viability, T/C [31] of 96.4%, a viability, T/C [32] of 73.3% and a viability, T/C [33] of 92.4%. For the same molecule, the viability, T/C [34] was 121%, the viability, T/C [35] was 26.9% and the viability, T/C [36] was 1.06%.
With `C=CC(=O)N1CCN(c2nc(=O)n(-c3c(C)ccnc3C(C)C)c3nc(-c4c(O)cccc4F)c(F)cc23)C(C)C1` (stereo unspecified) + Cc1c(S(C)(=O)=O)c(-c2cc(F)cc(N3CCN(c4ccc(NS(=O)(=O)c5ccc(NC(CCN6CCC(C(=O)OCCCP(=O)(O)O)CC6)CSc6ccccc6)c(S(=O)(=O)C(F)(F)F)c5)cc4)CC3)c2)c(-c2ccc(Cl)cc2)n1C(C)C the IC50 (second compound 0.0316 µM) was > 10 µM, the IC50 (second compound 0.1 µM) was > 10 µM and the IC50 (second compound 0.316 µM) was > 10 µM. The IC50 (second compound 1 µM) was > 10 µM, the IC50 (second compound 3.16 µM) was > 10 µM and the IC50 (second compound 10 µM) was > 10 µM. The viability, T/C [1] was 109%, the viability, T/C [2] was 113% and the viability, T/C [3] was 93.3%. For the same molecule, the viability, T/C [4] was 95%, the viability, T/C [5] was 106% and the viability, T/C [6] was 122%. The viability, T/C [7] was 101%, the viability, T/C [8] was 96.2% and the viability, T/C [9] was 94.5%. For the same molecule, the viability, T/C [10] was 104%, the viability, T/C [11] was 93.3% and the viability, T/C [12] was 118%. It also gave a viability, T/C [13] of 97.5%, a viability, T/C [14] of 92.3% and a viability, T/C [15] of 106%. It also gave a viability, T/C [16] of 93.6%, a viability, T/C [17] of 99% and a viability, T/C [18] of 123%. For the same molecule, the viability, T/C [19] was 104%, the viability, T/C [20] was 112% and the viability, T/C [21] was 114%. The viability, T/C [22] was 92.9%, the viability, T/C [23] was 92.8% and the viability, T/C [24] was 109%. For the same molecule, the viability, T/C [25] was 102%, the viability, T/C [26] was 98.3% and the viability, T/C [27] was 89.7%. It also gave a viability, T/C [28] of 104%, a viability, T/C [29] of 93.7% and a viability, T/C [30] of 105%. The viability, T/C [31] was 101%, the viability, T/C [32] was 91.5% and the viability, T/C [33] was 81.9%. It also gave a viability, T/C [34] of 91.6%, a viability, T/C [35] of 99.5% and a viability, T/C [36] of 101%.
For `CCN1C(C(=O)NC23CCC(C(=O)O)(CC2)CC3)C(c2cccc(Cl)c2F)C2(C(=O)Nc3cc(Cl)ccc32)C12CCCCC2` (stereo unspecified) + Cc1c(S(C)(=O)=O)c(-c2cc(F)cc(N3CCN(c4ccc(NS(=O)(=O)c5ccc(NC(CCN6CCC(C(=O)OCCCP(=O)(O)O)CC6)CSc6ccccc6)c(S(=O)(=O)C(F)(F)F)c5)cc4)CC3)c2)c(-c2ccc(Cl)cc2)n1C(C)C, the IC50 (second compound 0.0316 µM) was > 3 µM, the IC50 (second compound 0.1 µM) was > 3 µM and the IC50 (second compound 0.316 µM) was > 3 µM. The IC50 (second compound 1 µM) was > 3 µM, the IC50 (second compound 3.16 µM) was > 3 µM and the IC50 (second compound 10 µM) was > 3 µM. The viability, T/C (second compound 0.0316 µM, first compound 0.00949 µM) was 92.4%, the viability, T/C (second compound 0.0316 µM, first compound 0.03 µM) was 99.1% and the viability, T/C (second compound 0.0316 µM, first compound 0.0949 µM) was 99.5%. For the same molecule, the viability, T/C (second compound 0.0316 µM, first compound 0.3 µM) was 90%, the viability, T/C (second compound 0.0316 µM, first compound 0.949 µM) was 107% and the viability, T/C (second compound 0.0316 µM, first compound 3 µM) was 109%. For the same molecule, the viability, T/C (second compound 0.1 µM, first compound 0.00949 µM) was 90.1%, the viability, T/C (second compound 0.1 µM, first compound 0.03 µM) was 95.8% and the viability, T/C (second compound 0.1 µM, first compound 0.0949 µM) was 94.8%. It also gave a viability, T/C (second compound 0.1 µM, first compound 0.3 µM) of 89.8%, a viability, T/C (second compound 0.1 µM, first compound 0.949 µM) of 101% and a viability, T/C (second compound 0.1 µM, first compound 3 µM) of 105%. The viability, T/C (second compound 0.316 µM, first compound 0.00949 µM) was 108%, the viability, T/C (second compound 0.316 µM, first compound 0.03 µM) was 99.9% and the viability, T/C (second compound 0.316 µM, first compound 0.0949 µM) was 94.8%. For the same molecule, the viability, T/C (second compound 0.316 µM, first compound 0.3 µM) was 105%, the viability, T/C (second compound 0.316 µM, first compound 0.949 µM) was 102% and the viability, T/C (second compound 0.316 µM, first compound 3 µM) was 125%. It also gave a viability, T/C (second compound 1 µM, first compound 0.00949 µM) of 109%, a viability, T/C (second compound 1 µM, first compound 0.03 µM) of 93.1% and a viability, T/C (second compound 1 µM, first compound 0.0949 µM) of 93.5%. It also gave a viability, T/C (second compound 1 µM, first compound 0.3 µM) of 106%, a viability, T/C (second compound 1 µM, first compound 0.949 µM) of 112% and a viability, T/C (second compound 1 µM, first compound 3 µM) of 144%. For the same molecule, the viability, T/C (second compound 3.16 µM, first compound 0.00949 µM) was 118%, the viability, T/C (second compound 3.16 µM, first compound 0.03 µM) was 95.2% and the viability, T/C (second compound 3.16 µM, first compound 0.0949 µM) was 88.3%. It also gave a viability, T/C (second compound 3.16 µM, first compound 0.3 µM) of 101%, a viability, T/C (second compound 3.16 µM, first compound 0.949 µM) of 98.8% and a viability, T/C (second compound 3.16 µM, first compound 3 µM) of 144%. The viability, T/C (second compound 10 µM, first compound 0.00949 µM) was 113%, the viability, T/C (second compound 10 µM, first compound 0.03 µM) was 104% and the viability, T/C (second compound 10 µM, first compound 0.0949 µM) was 106%. For the same molecule, the viability, T/C (second compound 10 µM, first compound 0.3 µM) was 86.7%, the viability, T/C (second compound 10 µM, first compound 0.949 µM) was 132% and the viability, T/C (second compound 10 µM, first compound 3 µM) was 146%.
